Earlier results, collected in patent US11599023B2, “Photosensitive resin composition, organic EL element barrier rib, and organic EL element” (SHOWA DENKO K.K., priority 2018, dated 2023).
Where two headings read alike, the source gives them in different places.

Key:
[1] = not given; remark: listed apart in the source
[2] = Table 1, at 20° C. and 1 atm, cited in Scifinder
[3] = Table 2, of the low molecular weight organic compound (B), cited in Scifinder
[4] = at 20° C. and 1 atm, SciFinder database
[5] = Table 1, at 25° C., cited in Scifinder

| SMILES | Molar volume [2] [cm^3/mol] | Molar volume [3] [cm^3/mol] | Molar volume [4] [cm^3/mol] | pKa [1, 5] | pKa [1, 3] | pKa ([1]; at 25° C., SciFinder database) |
| --- | --- | --- | --- | --- | --- | --- |
| Oc1ccc(O)c(O)c1 [1,2,4-Benzenetriol] | 84.7 | 84.7 | 84.7 | 9.58 | 9.58 | 9.58 |
| O=C(c1ccc(O)cc1)c1ccc(O)c(O)c1O [2,3,4,4′-Tetrahydroxybenzophenone, 2,3,4,4′-Tetrahydroxybenzophenone, reference compound] | 161.2 | 161.2 |  | 7.38 | 7.38 |  |
| O=C(O)c1ccc(O)c(O)c1O [2,3,4-Trihydroxybenzoic acid] | 97.2 | 97.2 | 97.2 | 3.30 | 3.30 | 3.3 |
| O=C(O)c1cccc(O)c1O [2,3-Dihydroxybenzoic acid] | 98.8 | 98.8 | 98.8 | 2.96 | 2.96 | 2.96 |
| O=C(O)c1ccc(O)cc1O [2,4-Dihydroxybenzoic acid] | 98.8 | 98.8 | 98.8 | 3.32 | 3.32 | 3.32 |
| O=C(O)c1cc(O)ccc1O [2,5-Dihydroxybenzoic acid] | 98.8 | 98.8 | 98.8 |  |  |  |
| O=C(O)c1cc(O)cc(O)c1 [3,5-Dihydroxybenzoic acid] | 98.8 | 98.8 | 98.8 | 3.96 | 3.96 | 3.96 |
| O=C(O)c1cc(O)c(O)c(O)c1 [Gallic acid] | 97.2 | 97.2 | 97.2 |  |  |  |
| O=C(O)c1cccc(C(=O)O)c1C(=O)O [Hemimellitic acid] | 127.0 | 127.0 | 127 |  |  |  |
| Oc1ccc(O)c2c(O)c3ccccc3c(O)c12 [Leucoquinizarin, reference compound] | 151.3 | 151.3 |  | 8.11 | 8.11 |  |
| Oc1ccccc1O [catechol] |  |  | 86.2 |  |  |  |

Second part, the compound after the results:

| Molar volume [2] [cm^3/mol] | Molar volume [3] [cm^3/mol] | Molar volume [4] [cm^3/mol] | pKa [1, 5] | pKa [1, 3] | pKa ([1]; at 25° C., SciFinder database) | SMILES |
| --- | --- | --- | --- | --- | --- | --- |
| 229.7 | 229.7 |  | 9.23 | 9.23 |  | O=C1OC(c2ccc(O)cc2)(c2ccc(O)cc2)c2ccccc21 [Phenolphthalein, reference compound] |
| 242.0 | 242.0 |  | 3.96 | 3.96 |  | O=C(O)c1ccccc1C(c1ccc(O)cc1)c1ccc(O)cc1 [Phenolphthalin, reference compound] |
| 84.7 | 84.7 | 84.7 | 9.06 | 9.06 | 9.06 | Oc1cc(O)cc(O)c1 [Phloroglucinol] |
| 155.6 | 155.6 |  |  |  |  | CCCOC(=O)c1cc(O)c(O)c(O)c1 [Propyl gallate, reference compound] |
| 84.7 | 84.7 | 84.7 |  |  |  | Oc1cccc(O)c1O [Pyrogallol] |
| 139.5 | 139.5 |  |  |  |  | O=C(O)c1cc(C(=O)O)c(C(=O)O)cc1C(=O)O [Pyromellitic acid, reference compound] |
|  |  | 86.2 |  |  | 9.58 | Oc1ccc(O)cc1 [hydroquinone] |
|  |  | 114.4 |  |  |  | O=C(O)c1cccc(C(=O)O)c1 [isophthalic acid] |
|  |  | 114.4 |  |  |  | O=C(O)c1ccccc1C(=O)O [phthalic acid] |
|  |  | 86.2 |  |  | 9.45 | Oc1cccc(O)c1 [resorcinol] |
|  |  | 114.4 |  |  |  | O=C(O)c1ccc(C(=O)O)cc1 [terephthalic acid] |
|  |  | 127.0 |  |  |  | O=C(O)c1ccc(C(=O)O)c(C(=O)O)c1 [trimellitic acid] |
|  |  | 127.0 |  |  |  | O=C(O)c1cc(C(=O)O)cc(C(=O)O)c1 [trimesic acid] |
